Test results: US10870647B2, “Imidazopyridine derivative, method for preparing same, and pharmaceutical composition containing same as active ingredient for preventing or treating cancer” (DAEGU-GYEONGBUK MEDICAL INNOVATION FOUNDATION, priority 2016, dated 2020)

Key:
Assay in all cases: Kinase selectivity, scanMAX Kinase assay panel (DiscoverX), % control at 1 uM
Assay type in all cases: binding
[1] = biological target: T1, scanMAX Kinase assay panel (Homo sapiens, UniProt P00533, L861Q); settings: EGFR (L861Q); 1 uM; read-out: Percent Control (%)
T1 construct: purchased DiscoverX
How it was run: (§1)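 Activity was called for kinases showing % control under 35, calculated from compound signal relative to positive and negative controls. Each compound screened at 1 uM against the DiscoverX scanMAX panel.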

[2] = biological target: T2, scanMAX Kinase assay panel (Homo sapiens, UniProt P07948); settings: LYN; 1 uM; read-out: Percent Control (%)
T2 construct: purchased DiscoverX
How it was run: as §1

[3] = biological target: T3, scanMAX Kinase assay panel (Homo sapiens, UniProt P10721, T670I/V559D); settings: KIT (V559D, T670I); 1 uM; read-out: Percent Control (%)
T3 construct: purchased DiscoverX
How it was run: as §1

[4] = biological target: T4, scanMAX Kinase assay panel (Homo sapiens, UniProt P21709); settings: EPHA1; 1 uM; read-out: Percent Control (%)
T4 construct: purchased DiscoverX
T4 sequence (P21709 26-976): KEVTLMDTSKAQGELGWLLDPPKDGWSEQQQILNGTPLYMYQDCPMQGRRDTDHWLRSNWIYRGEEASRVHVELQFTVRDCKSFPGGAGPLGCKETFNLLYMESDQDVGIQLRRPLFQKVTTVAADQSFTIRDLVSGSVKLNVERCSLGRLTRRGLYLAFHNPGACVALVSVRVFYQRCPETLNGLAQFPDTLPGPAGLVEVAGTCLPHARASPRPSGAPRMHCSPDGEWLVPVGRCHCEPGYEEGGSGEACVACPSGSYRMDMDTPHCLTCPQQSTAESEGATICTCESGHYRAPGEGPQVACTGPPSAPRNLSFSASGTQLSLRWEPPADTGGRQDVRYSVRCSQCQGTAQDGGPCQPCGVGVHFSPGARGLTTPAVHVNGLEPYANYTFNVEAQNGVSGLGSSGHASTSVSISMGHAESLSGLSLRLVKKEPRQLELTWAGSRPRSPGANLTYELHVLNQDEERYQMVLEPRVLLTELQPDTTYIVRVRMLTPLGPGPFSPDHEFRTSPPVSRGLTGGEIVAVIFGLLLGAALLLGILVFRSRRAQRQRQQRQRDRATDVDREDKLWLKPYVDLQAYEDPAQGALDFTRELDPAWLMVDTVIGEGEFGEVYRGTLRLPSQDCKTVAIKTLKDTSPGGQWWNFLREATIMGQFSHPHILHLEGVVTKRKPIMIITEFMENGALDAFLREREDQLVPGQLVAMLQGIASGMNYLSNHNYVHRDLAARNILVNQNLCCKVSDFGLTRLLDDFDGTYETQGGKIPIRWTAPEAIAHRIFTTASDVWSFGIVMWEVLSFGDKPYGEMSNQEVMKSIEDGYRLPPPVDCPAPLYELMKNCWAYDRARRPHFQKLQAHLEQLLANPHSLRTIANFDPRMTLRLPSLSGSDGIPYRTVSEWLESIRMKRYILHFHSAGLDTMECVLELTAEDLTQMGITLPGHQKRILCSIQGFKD
How it was run: as §1

[5] = biological target: T5, scanMAX Kinase assay panel (Homo sapiens, UniProt P45983); settings: JNK1; 1 uM; read-out: Percent Control (%)
T5 construct: purchased DiscoverX
How it was run: as §1

[6] = biological target: T6, scanMAX Kinase assay panel (Homo sapiens, UniProt P51617); settings: IRAK1; 1 uM; read-out: Percent Control (%)
T6 construct: purchased DiscoverX
How it was run: as §1

[7] = biological target: T7, scanMAX Kinase assay panel (Homo sapiens, UniProt Q00536); settings: PCTK1; 1 uM; read-out: Percent Control (%)
T7 construct: purchased DiscoverX
How it was run: as §1

[8] = biological target: T8, scanMAX Kinase assay panel (Homo sapiens, UniProt Q13557); settings: CAMK2D; 1 uM; read-out: Percent Control (%)
T8 construct: purchased DiscoverX
How it was run: as §1

[9] = biological target: T9, scanMAX Kinase assay panel (Homo sapiens, UniProt Q86V86); settings: PIM3; 1 uM; read-out: Percent Control (%)
T9 construct: purchased DiscoverX
How it was run: as §1

[10] = biological target: T10, scanMAX Kinase assay panel (Homo sapiens, UniProt Q9BZL6); settings: PRKD2; 1 uM; read-out: Percent Control (%)
T10 construct: purchased DiscoverX
T10 sequence (Q9BZL6 1-878): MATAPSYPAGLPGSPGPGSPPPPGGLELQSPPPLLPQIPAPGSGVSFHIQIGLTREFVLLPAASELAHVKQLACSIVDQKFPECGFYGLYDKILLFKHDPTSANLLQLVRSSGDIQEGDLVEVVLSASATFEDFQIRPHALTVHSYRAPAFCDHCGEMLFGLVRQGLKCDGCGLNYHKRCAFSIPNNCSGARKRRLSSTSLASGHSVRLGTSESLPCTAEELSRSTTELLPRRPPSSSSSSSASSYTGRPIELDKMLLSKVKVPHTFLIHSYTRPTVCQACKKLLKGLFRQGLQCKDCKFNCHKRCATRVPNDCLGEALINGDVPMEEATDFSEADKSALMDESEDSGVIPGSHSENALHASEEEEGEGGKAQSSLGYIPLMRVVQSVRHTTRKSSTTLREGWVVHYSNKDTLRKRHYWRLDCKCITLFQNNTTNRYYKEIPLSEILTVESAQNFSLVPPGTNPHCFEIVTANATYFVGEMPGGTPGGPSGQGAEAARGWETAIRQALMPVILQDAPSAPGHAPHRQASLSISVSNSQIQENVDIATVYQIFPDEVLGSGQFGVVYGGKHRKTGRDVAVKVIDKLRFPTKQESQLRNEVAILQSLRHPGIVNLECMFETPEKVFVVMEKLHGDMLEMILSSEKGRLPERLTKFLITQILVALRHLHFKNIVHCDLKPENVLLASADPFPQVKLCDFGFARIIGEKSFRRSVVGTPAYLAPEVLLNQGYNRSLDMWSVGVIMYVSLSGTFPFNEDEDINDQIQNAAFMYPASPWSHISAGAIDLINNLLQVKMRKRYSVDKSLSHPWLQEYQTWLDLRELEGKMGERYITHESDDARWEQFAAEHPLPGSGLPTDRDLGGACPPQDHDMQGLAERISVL
How it was run: as §1

[11] = biological target: T11, scanMAX Kinase assay panel (Homo sapiens, UniProt Q9P289); settings: MST4; 1 uM; read-out: Percent Control (%)
T11 construct: purchased DiscoverX
How it was run: as §1

T2 sequence (P07948 whole entry): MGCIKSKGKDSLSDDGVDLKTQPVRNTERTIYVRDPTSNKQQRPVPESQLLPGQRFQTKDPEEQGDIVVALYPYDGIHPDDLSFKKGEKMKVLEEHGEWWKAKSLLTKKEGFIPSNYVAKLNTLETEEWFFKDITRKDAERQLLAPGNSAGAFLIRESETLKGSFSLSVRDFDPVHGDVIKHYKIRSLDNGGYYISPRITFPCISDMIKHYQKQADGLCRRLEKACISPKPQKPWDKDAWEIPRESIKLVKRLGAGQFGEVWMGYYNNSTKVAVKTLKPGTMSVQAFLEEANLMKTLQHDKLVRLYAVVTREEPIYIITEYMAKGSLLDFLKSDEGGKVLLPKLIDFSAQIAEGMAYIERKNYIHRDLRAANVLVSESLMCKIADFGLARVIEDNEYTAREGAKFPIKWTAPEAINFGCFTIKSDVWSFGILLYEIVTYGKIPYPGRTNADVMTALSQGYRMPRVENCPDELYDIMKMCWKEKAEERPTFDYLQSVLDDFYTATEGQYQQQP
T6 sequence (P51617 whole entry): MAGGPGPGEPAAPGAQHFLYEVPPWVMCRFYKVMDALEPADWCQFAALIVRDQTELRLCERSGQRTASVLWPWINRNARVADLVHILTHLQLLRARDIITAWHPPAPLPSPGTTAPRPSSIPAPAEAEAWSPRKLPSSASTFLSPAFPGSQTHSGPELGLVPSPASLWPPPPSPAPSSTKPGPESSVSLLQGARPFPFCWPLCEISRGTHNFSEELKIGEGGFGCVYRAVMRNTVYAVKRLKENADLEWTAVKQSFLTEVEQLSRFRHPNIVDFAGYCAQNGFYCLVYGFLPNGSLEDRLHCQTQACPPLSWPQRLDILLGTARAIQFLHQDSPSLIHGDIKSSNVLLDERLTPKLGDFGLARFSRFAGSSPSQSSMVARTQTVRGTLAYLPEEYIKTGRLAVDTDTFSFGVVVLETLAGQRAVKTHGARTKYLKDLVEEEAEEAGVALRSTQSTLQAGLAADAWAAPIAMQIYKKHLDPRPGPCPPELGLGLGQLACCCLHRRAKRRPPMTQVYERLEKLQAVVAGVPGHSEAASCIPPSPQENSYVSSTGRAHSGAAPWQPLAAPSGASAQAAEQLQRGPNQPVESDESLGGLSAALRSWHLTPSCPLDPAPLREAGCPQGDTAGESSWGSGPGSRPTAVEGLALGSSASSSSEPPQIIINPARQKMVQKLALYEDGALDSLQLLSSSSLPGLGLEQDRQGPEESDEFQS
T3 sequence (P10721 26-976 V559D/T670I): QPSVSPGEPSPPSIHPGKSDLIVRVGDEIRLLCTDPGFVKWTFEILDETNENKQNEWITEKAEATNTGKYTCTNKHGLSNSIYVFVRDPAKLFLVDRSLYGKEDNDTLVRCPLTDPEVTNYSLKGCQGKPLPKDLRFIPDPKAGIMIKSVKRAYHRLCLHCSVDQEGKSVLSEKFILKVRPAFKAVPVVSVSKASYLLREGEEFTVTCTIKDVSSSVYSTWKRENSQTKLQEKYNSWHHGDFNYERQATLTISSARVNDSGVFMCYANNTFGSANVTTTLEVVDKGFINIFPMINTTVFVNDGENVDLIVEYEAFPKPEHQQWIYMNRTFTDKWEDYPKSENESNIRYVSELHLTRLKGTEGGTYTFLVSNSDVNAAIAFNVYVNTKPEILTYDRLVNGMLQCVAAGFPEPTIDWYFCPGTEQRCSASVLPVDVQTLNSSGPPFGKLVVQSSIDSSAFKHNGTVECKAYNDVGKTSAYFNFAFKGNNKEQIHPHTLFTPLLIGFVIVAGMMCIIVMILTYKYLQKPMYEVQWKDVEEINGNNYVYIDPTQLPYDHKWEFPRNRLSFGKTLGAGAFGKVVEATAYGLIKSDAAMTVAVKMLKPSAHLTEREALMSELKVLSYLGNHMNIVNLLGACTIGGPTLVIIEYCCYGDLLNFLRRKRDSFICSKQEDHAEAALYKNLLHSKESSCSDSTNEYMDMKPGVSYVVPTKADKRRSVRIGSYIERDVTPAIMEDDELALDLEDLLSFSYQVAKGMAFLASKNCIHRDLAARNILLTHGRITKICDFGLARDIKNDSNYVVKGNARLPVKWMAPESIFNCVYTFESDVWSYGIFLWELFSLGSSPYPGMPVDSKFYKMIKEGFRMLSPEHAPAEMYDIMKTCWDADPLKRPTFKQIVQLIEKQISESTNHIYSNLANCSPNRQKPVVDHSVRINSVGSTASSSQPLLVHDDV
T1 sequence (P00533 25-1210 L861Q): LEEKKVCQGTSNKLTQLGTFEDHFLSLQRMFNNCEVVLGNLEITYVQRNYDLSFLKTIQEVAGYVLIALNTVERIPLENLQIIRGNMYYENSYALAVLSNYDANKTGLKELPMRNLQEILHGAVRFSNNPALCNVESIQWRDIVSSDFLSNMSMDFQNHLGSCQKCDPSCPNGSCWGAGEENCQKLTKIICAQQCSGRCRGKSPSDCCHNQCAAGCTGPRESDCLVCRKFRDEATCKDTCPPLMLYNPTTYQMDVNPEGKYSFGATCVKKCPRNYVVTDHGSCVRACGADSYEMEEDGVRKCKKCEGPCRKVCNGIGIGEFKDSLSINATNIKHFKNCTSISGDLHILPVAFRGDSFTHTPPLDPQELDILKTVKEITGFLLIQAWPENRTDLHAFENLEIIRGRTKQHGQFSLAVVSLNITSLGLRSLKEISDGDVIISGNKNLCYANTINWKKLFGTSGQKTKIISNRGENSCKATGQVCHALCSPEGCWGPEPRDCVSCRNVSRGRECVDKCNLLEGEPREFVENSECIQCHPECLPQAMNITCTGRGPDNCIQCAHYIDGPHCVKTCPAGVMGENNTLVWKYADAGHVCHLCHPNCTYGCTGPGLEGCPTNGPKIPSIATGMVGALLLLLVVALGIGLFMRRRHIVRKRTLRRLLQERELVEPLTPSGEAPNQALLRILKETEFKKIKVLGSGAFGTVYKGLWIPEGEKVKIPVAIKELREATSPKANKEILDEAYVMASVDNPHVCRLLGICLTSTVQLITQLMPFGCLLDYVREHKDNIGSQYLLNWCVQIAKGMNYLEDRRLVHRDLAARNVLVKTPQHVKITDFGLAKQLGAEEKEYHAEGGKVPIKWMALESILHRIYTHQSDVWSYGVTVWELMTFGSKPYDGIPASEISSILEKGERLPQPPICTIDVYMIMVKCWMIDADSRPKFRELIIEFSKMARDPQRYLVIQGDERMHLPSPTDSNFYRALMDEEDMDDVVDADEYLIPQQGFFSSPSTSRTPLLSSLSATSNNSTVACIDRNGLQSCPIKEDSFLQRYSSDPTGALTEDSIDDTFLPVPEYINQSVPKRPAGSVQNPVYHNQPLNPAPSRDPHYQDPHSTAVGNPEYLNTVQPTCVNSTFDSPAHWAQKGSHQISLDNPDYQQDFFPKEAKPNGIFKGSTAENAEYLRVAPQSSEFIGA
T5 sequence (P45983 whole entry): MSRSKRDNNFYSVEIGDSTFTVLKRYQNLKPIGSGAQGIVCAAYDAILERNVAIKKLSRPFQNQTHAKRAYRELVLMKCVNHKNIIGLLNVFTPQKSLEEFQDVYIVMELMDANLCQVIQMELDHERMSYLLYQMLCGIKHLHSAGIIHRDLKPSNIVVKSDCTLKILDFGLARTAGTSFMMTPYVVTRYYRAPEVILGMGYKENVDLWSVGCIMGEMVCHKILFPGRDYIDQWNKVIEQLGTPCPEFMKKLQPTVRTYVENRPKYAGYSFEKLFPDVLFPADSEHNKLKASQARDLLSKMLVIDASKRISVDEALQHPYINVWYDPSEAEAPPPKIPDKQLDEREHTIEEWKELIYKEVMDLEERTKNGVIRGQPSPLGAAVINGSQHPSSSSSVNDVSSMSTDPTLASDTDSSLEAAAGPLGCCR
T11 sequence (Q9P289 whole entry): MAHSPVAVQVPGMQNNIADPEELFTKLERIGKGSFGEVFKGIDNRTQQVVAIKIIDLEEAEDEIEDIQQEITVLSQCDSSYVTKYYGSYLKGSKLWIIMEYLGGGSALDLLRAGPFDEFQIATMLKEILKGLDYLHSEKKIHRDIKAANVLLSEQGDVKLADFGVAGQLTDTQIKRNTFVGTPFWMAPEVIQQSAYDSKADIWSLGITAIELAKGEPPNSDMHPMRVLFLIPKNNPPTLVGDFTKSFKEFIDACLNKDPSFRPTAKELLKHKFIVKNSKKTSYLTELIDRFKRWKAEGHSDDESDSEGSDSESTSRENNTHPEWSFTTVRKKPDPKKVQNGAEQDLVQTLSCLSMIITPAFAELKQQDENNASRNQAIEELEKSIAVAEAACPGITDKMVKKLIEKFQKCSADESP
T7 sequence (Q00536 whole entry): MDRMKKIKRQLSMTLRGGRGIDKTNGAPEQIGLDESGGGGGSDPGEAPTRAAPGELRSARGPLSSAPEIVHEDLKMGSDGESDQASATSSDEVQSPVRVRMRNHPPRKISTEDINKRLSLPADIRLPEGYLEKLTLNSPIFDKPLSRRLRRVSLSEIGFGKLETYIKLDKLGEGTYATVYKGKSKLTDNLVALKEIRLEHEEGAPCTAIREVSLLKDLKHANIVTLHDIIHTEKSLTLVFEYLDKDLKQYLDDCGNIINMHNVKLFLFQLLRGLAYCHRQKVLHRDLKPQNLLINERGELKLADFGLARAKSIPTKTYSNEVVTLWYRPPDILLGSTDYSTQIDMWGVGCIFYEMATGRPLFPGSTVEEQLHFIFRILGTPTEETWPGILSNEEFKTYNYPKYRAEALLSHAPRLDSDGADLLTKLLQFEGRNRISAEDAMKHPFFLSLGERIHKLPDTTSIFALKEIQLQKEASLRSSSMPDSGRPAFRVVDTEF

SMILES | remaining binding at 1 µM [1] [%] | remaining binding at 1 µM [2] [%] | remaining binding at 1 µM [3] [%] | remaining binding at 1 µM [4] [%] | remaining binding at 1 µM [5] [%] | remaining binding at 1 µM [6] [%] | remaining binding at 1 µM [7] [%] | remaining binding at 1 µM [8] [%] | remaining binding at 1 µM [9] [%] | remaining binding at 1 µM [10] [%] | remaining binding at 1 µM [11] [%]
Cc1ccc(C(=O)Nc2ccc(CN3CCN(C)CC3)c(C(F)(F)F)c2)cc1C#Cc1cnc2c(Nc3cnn(C)c3)cccn12 [Example 1, 4-methyl-3-((8-((1-methyl-1H-pyrazol-4-yl)amino)imidazo[1,2-a]pyridin-3-yl)ethynyl)-N-(4-((4-methylpiperazin-1-yl)methyl)-3-(trifluoromethyl)phenyl)benzamide] | 1 | 0 | 0 | 2 | 4 | 6 | 93 | 82 | 88 | 41 | 55
Cc1cn(-c2cc(NC(=O)c3ccc(C)c(C#Cc4cnc5c(Nc6cnn(C)c6)cccn45)c3)cc(C(F)(F)F)c2)cn1 [Example 12, 4-methyl-N-(3-(4-methyl-1H-imidazol-1-yl)-5-(trifluoromethyl)phenyl)-3-((8-((1-methyl-1H-pyrazol-4-yl)amino)imidazo[1,2-a]pyridin-3-yl)ethynyl)benzamide] | 22 | 3 | 3 | 8 | 63 | 100 | 100 | 78 | 90 | 98 | 91
Cc1ccc(NC(=O)C2(C(=O)Nc3ccc(F)cc3)CC2)cc1C#Cc1cnc2c(Nc3cnn(C(C)C)c3)cccn12 [Example 78] | 92 | 84 | 63 | 69 | 99 | 100 | 100 | 100 | 100 | 95 | 100
